From patent US20170190671A1, “BIS(ARYL)CATECHOL DERIVATIVES AS HERBICIDES” (E I DU PONT DE NEMOURS AND COMPANY, priority 2014, published 2017)

Experiments:
Experiment in all cases: Test F preemergence
Format in all cases: in vivo
Settings in all cases: 21 days, scale 0 to 100
[1] = test system: mustard, black (black mustard, Brassica nigra)
Text: (§1) Seeds of plant species selected from bermudagrass (Cynodon dactylon), Surinam grass (Brachiaria decumbens), large (Lg) crabgrass (Digitaria sanguinalis), crabgrass, naked (naked crabgrass, Digitaria nuda), foxtail, green (green foxtail, Setaria viridis), johnsongrass (Sorghum halepense), kochia (Kochia scoparia), morningglory (pitted morningglory, Ipomoea lacunosa), nutsedge, purple (purple nutsedge, Cyperus rotundus), ragweed (common ragweed, Ambrosia elatior), mustard, black (black mustard, Brassica nigra), guineagrass (Panicum maximum), dallisgrass (Paspalum dilatatum), barnyardgrass (Echinochloa crus-galli), sandbur (southern sandbur, Cenchrus echinatus), sowthistle (common sowthistle, Sonchus oleraceous), Italian ryegrass (Lolium multiflorum), signalgrass (broadleaf signalgrass, Brachiaria platyphylla), dayflower (Virginia (VA) dayflower, Commelina virginica), bluegrass (annual bluegrass, Poa annua), quackgrass (Elytrigia repens), mallow (common mallow, Malva sylvestris), buckwheat, wild (wild buckwheat, Polygonum convolvulus), leafy spurge (Euphorbia esula), chickweed (common chickweed, Stellaria media), wild poinsettia (Euphorbia heterophylla), and pigweed (Amaranthus retroflexus) were planted into a blend of loam soil and sand and treated preemergence with test a chemical formulated in a non-phytotoxic solvent mixture which included a surfactant.
(§2) Treated plants and controls were maintained in a greenhouse for 21 days, after which time all species were compared to controls and visually evaluated. Plant response ratings, summarized in Table F, are based on a scale of 0 to 100 where 0 is no effect and 100 is complete control. A dash (-) response means no test result.

[2] = test system: johnsongrass (Sorghum halepense)
Text: as §1, §2

[3] = test system: dallisgrass (Paspalum dilatatum)
Text: as §1, §2

[4] = test system: mallow (common mallow, Malva sylvestris)
Text: as §1, §2

[5] = test system: guineagrass (Panicum maximum)
Text: as §1, §2

[6] = test system: crabgrass, naked (naked crabgrass, Digitaria nuda)
Text: as §1, §2

[7] = test system: Italian ryegrass (Lolium multiflorum)
Text: as §1, §2

[8] = test system: bermudagrass (Cynodon dactylon)
Text: as §1, §2

In the case of `N#Cc1cccc(Oc2ncc(Cl)cn2)c1Oc1ncc(Cl)cn1` [Compound 3, 2,3-bis[(5-chloro-2-pyrimidinyl)oxy]benzonitrile], the “Plant response rating, Mustard, Black” value ([1]; 62 g ai/ha) is reported as 100, the “Plant response rating, Mustard, Black” value ([1]; 125 g ai/ha) is reported as 100 and the “Plant response rating, Mustard, Black” value ([1]; 250 g ai/ha) is reported as 100. For the same compound, the “Plant response rating, Johnsongrass” value ([2]; 62 g ai/ha) was 75, the “Plant response rating, Johnsongrass” value ([2]; 125 g ai/ha) was 100 and the “Plant response rating, Johnsongrass” value ([2]; 250 g ai/ha) was 100. The “Plant response rating, Dallisgrass” value ([3]; 62 g ai/ha) was 100, the “Plant response rating, Dallisgrass” value ([3]; 125 g ai/ha) was 100 and the “Plant response rating, Dallisgrass” value ([3]; 250 g ai/ha) was 100. The “Plant response rating, Mallow” value ([4]; 62 g ai/ha) was 100, the “Plant response rating, Mallow” value ([4]; 125 g ai/ha) was 100 and the “Plant response rating, Mallow” value ([4]; 250 g ai/ha) was 100. The “Plant response rating, Guineagrass” value ([5]; 62 g ai/ha) was 100, the “Plant response rating, Guineagrass” value ([5]; 125 g ai/ha) was 100 and the “Plant response rating, Guineagrass” value ([5]; 250 g ai/ha) was 100. For the same compound, the “Plant response rating, Crabgrass, Naked” value ([6]; 62 g ai/ha) was 100, the “Plant response rating, Crabgrass, Naked” value ([6]; 125 g ai/ha) was 100 and the “Plant response rating, Crabgrass, Naked” value ([6]; 250 g ai/ha) was 100. The “Plant response rating, Ryegrass, Italian” value ([7]; 62 g ai/ha) was 95, the “Plant response rating, Ryegrass, Italian” value ([7]; 125 g ai/ha) was 100 and the “Plant response rating, Ryegrass, Italian” value ([7]; 250 g ai/ha) was 100. The “Plant response rating, Bermudagrass” value ([8]; 62 g ai/ha) was 100, the “Plant response rating, Bermudagrass” value ([8]; 125 g ai/ha) was 100 and the “Plant response rating, Bermudagrass” value ([8]; 250 g ai/ha) was 100.
